Our source for the EC50 values is patent publication US12110294B2, “CD73 compounds” (Gilead Sciences, Inc., priority 2020, dated 2024).

Structures are written as SMILES.

For orientation: EC50 means the concentration that produces a half-maximal response. A lower EC50 goes with an effect from little substance.

This assay addresses T1, CD73 activity in MDA-MB-231-GFP cells (Homo sapiens, UniProt P21589).
T1 construct: endogenous in cells; host or cells: MDA-MB-231-GFP cells
T1 sequence (P21589 27-549): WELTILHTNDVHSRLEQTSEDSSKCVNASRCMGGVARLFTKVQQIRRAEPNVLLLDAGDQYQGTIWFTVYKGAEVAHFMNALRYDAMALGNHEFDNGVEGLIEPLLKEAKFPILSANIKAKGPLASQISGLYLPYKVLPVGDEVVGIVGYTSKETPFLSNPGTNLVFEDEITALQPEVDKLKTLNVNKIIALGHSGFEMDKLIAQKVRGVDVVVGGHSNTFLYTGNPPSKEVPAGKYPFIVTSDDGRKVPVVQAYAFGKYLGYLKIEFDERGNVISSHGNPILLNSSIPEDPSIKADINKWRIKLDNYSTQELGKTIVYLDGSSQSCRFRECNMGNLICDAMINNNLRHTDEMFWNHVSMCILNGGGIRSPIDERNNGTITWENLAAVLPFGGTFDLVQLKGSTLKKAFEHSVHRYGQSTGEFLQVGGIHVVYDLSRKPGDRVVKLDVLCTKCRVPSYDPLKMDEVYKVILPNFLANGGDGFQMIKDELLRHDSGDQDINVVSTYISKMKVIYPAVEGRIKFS
Nature of the assay: MDA-MB-231 Cell Based CD73 Activity Assay (DMEM). To be noted: 3000 cells per well, DMEM medium with 10% human plasma, overnight compound treatment, AMP 200 uM. How it is done: MDA-MB-231 Cell Based CD73 Activity Assay (DMEM) MDA-MB-231-GFP cells were seeded in 384-well plates (Greiner 781946) at a density of 3000 cells per well in 50 μL of DMEM medium with 10% HP (human plasma). Cells were plated into assay plate with compounds pre-spotted, for an overnight compound treatment. 50 uL of 400 uM AMP (final concentration will be 200 uM) was added using Bio-tek dispenser. Plates were incubated for 100 mins. […] The samples were analyzed using Rapid fire.
Compound `O=c1[nH]cc(-c2cc([C@H]3C[C@@H]3c3ccccn3)c3ncc(F)n3n2)c(=O)[nH]1` (racemic) [Example 178, 5-(3-fluoro-8-((1S,2S)-2-(pyridin-2-yl)cyclopropyl)imidazo[1,2-b]pyridazin-6-yl)pyrimidine-2,4(1H,3H)-dione] showed an EC50 of 4.35 nM.

`O=c1[nH]cc(-c2cc([C@H]3C[C@@H]3c3cncnc3)c3ncc(F)n3n2)c(=O)[nH]1` (racemic) [Example 179, 5-(3-fluoro-8-((1S,2S)-2-(pyrimidin-5-yl)cyclopropyl)imidazo[1,2-b]pyridazin-6-yl)pyrimidine-2,4(1H,3H)-dione] showed a concentration for a half-maximal effect (EC50) of 60.5 nM. As to `O=c1[nH]cc(-c2cc([C@H]3C[C@@H]3c3cccnc3)c3ncc(F)n3n2)c(=O)[nH]1` (racemic) [Example 180, 5-(3-fluoro-8-((1S,2S)-2-(pyridin-3-yl)cyclopropyl)imidazo[1,2-b]pyridazin-6-yl)pyrimidine-2,4(1H,3H)-dione], the EC50 was found to be 4.67 nM. In the case of `O=c1[nH]cc(-c2cc([C@H]3C[C@@H]3c3ccncc3)c3ncc(F)n3n2)c(=O)[nH]1` (racemic) [Example 181, 5-(3-fluoro-8-((1S,2S)-2-(pyridin-4-yl)cyclopropyl)imidazo[1,2-b]pyridazin-6-yl)pyrimidine-2,4(1H,3H)-dione] it was 6.42 nM. The compound `O=c1[nH]cc(-c2cc([C@H]3C[C@@H]3c3ccc(Cl)cc3)c3ncc(F)n3n2)c(=O)[nH]1` (racemic) [Example 182, 5-(8-((2S,2S)-2-(4-chlorophenyl)cyclopropyl)-3-fluoroimidazo[1,2-b]pyridazin-6-yl)pyrimidine-2,4(1H,3H)-dione] returned a half-maximal effective concentration (EC50) of 10.4 nM. In the case of `O=c1[nH]cc(-c2cc([C@H]3C[C@@H]3c3ccc(C(F)(F)F)cc3)c3ncc(F)n3n2)c(=O)[nH]1` (racemic) [Example 183, 5-(3-fluoro-8-((1S,2S)-2-(4-(trifluoromethyl)phenyl)cyclopropyl)imidazo[1,2-b]pyridazin-6-yl)pyrimidine-2,4(1H,3H)-dione] it was 23.9 nM; in that of `Cn1cc([C@H]2C[C@@H]2c2cc(-c3c[nH]c(=O)[nH]c3=O)nn3ccnc23)ccc1=O` (racemic) [Example 184, 5-(8-((1S,2S)-2-(1-methyl-6-oxo-1,6-dihydropyridin-3-yl)cyclopropyl)imidazo[1,2-b]pyridazin-6-yl)pyrimidine-2,4(1H,3H)-dione], 9.45 nM.

Compound `CC1(C)C(=O)N(CC(F)(F)F)c2cc([C@H]3C[C@@H]3c3cc(-c4c[nH]c(=O)[nH]c4=O)nn4c(Cl)cnc34)ccc21` (racemic) [Example 212, 5-[3-chloro-8-[(1S,2S)-2-[3,3-dimethyl-2-oxo-1-(2,2,2-trifluoroethyl)indolin-6-yl]cyclopropyl]imidazo[1,2-b]pyridazin-6-yl]-1H-pyrimidine-2,4-dione] returned an EC50 of 0.72 nM. As for `O=c1[nH]cc(-c2cc([C@H]3C[C@@H]3c3ccc4c(F)nn(CC(F)(F)F)c4c3)c3ncc(Cl)n3n2)c(=O)[nH]1` (racemic) [Example 213, 5-[3-chloro-8-[(1S,2S)-2-[3-fluoro-1-(2,2,2-trifluoroethyl)indazol-6-yl]cyclopropyl]imidazo[1,2-b]pyridazin-6-yl]-1H-pyrimidine-2,4-dione], the EC50 was found to be 0.45 nM. In the case of `O=c1[nH]cc(-c2cc([C@H]3C[C@@H]3c3ccc4ncsc4c3)c3nccn3n2)c(=O)[nH]1` (racemic) [Example 276, 5-(8-((1S,2S)-2-(benzo[d]thiazol-6-yl)cyclopropyl)imidazo[1,2-b]pyridazin-6-yl)pyrimidine-2,4(1H,3H)-dione] it was 2.78 nM; in that of `O=c1[nH]cc(-c2cc([C@H]3C[C@@H]3c3ccc4c(c3)OC(F)(F)O4)c3ncc(F)n3n2)c(=O)[nH]1` (racemic) [Example 278, 5-(8-((2S,2S)-2-(2,2-difluorobenzo[d][1,3]dioxol-5-yl)cyclopropyl)-3-fluoroimidazo[1,2-b]pyridazin-6-yl)pyrimidine-2,4(1H,3H)-dione], 38.9 nM.
